How the values were obtained:
[1] = biological target: SOS1:KRAS (G12C) interaction (Homo sapiens (Human), UniProt Q07889); test: SOS1 KRas(G12C) FRET Assay; type: binding; settings: 0.5 nM His10-SOS1 (res. 564-1049), 2.5 nM GST-KRAS G12C (res. 1-169), 2 hrs at RT
Method in brief: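 GST-KRAS G12C (res. 1-169) at 2.5 nM and His10-SOS1 (res. 564-1049) at 0.5 nM, final, in PBS with 0.1% BSA, 5 mM MgCl2, 100 mM KF, 5 mM DTT and 0.5% DMSO. After 2 h at RT, FRET read at 665/615 nm and normalized to DMSO and no-SOS1 controls. IC50 by non-linear regression.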

[2] = biological target: human SOS1 (Homo sapiens (Human), UniProt Q07889); test: Surface Plasmon Resonance (SPR) SOS1 Binding Assay; settings: biotinylated SOS1 (res. 564-1049), Biacore 8K, 25° C., kinetic or steady state fit, 1:1 binding; read-out: hSOS1 KD
Description: Binding to SOS1 was measured using a SPR assay with purified recombinant human SOS1 substrate (res. 564-1049 with N-terminal Avi tag; purified and biotinylated based on Hillig, et al., Proc Natl Acad Sci USA (2019); 116(7):2551-2560). SPR measurements were performed on a Biacore 8K SPR instrument (GE Healthcare, Sweden). Assays were performed at 25° C. using Series S SA sensor chips pre-coated with streptavidin (GE Healthcare, Cat. BR100531). Biotinylated SOS1 diluted in sample buffer (20 mM Tris HCI, 150 mM NaCl, 1 mM DTT, 0.05% TWEEN 20, 1 mM MgCh, pH 8.0) was captured to one flow cell of the chip to about 3,000 resonance units (RU) using sample buffer supplemented with 5% DMSO as a running buffer. Serial dilutions of the assayed compounds in the running buffer at 100, 50 or 0.5 µM were injected for 60 s at a flow rate of 30 µL/min and association phases were recorded. Dissociation of the samples was monitored for 600 s. Data processing was performed using Biacore Insight Software (Biacore, GE Healthcare). Sensorgrams recorded on a SA flow cell without captured protein were subtracted from sensorgrams recorded on the SOS1 surface. Blank injections of running buffer were used for double referencing and solvent correction was applied to all sample sensorgrams to correct for buffer mismatches. KDS were estimated using a kinetic or steady state, where applicable, fitting model describing a reversible equilibrium with 1:1 binding between SOS1 and the compound.

Compound | IC50 [1] | Kd [2]
[2H]C([2H])([2H])N1C[C@@H]2[C@H](C1)[C@H]2Nc1cc(=O)n(C23CC(C2)C3)cc1C(=O)N[C@H](C)c1cccc(C(F)F)c1F [Example 91, 1-(bicyclo[1.1.1]pentan-1-yl)-N-((R)-1-(3-(difluoromethyl)-2-fluorophenyl)ethyl)-4-(((1R,5S,6s)-3-(methyl-d3)-3-azabicyclo[3.1.0]hexan-6-yl)amino)-6-oxo-1,6-dihydropyridine-3-carboxamide] | 13.9 nM | 12 nM
C[C@@H](NC(=O)c1cn([C@H]2CC2(C)C)c(=O)cc1N[C@H]1[C@@H]2CN(C)C[C@@H]21)c1cccc(C(F)F)c1F [Example 95, N-((R)-1-(3-(difluoromethyl)-2-fluorophenyl)ethyl)-1-((S)-2,2-dimethylcyclopropyl)-4-(((lR,5S,6s)-3-methyl-3-azabicyclo[3.1.0]hexan-6-yl)amino)-6-oxo-1,6-dihydropyridine-3-carboxamide] | 21.6 nM | 12 nM
C[C@@H](NC(=O)c1cn([C@@H]2C[C@H]2C(F)F)c(=O)cc1N[C@H]1[C@@H]2CN(C)C[C@@H]21)c1cccc(C(F)F)c1F [Example 114, N-((R)-1-(3-(difluoromethyl)-2-fluorophenyl)ethyl)-1-((1R,2R)-2-(difluoromethyl)cyclopropyl)-4-(((1R,5S,6s)-3-methyl-3-azabicyclo[3.1.0]hexan-6-yl)amino)-6-oxo-1,6-dihydropyridine-3-carboxamide] | 21.1 nM | 13 nM
C[C@@H](NC(=O)c1cn([C@H]2CCC2(F)F)c(=O)cc1N[C@H]1[C@@H]2CN(C)C[C@@H]21)c1cccc(C(C)(F)F)c1F (single isomer, unassigned) [Example 148] | 7.4 nM | 6 nM
C[C@@H](NC(=O)c1cn(C23CC(C2)C3)c(=O)cc1N[C@@H]1[C@@H]2CC[C@H]1CN(C)C2)c1cccc(C(F)F)c1F (single isomer, unassigned) [Example 134] | 9 nM | 5 nM
C[C@@H](NC(=O)c1cn([C@H]2C[C@H](F)C2)c(=O)cc1N[C@H]1[C@@H]2CN(C)C[C@@H]21)c1cccc(C(F)F)c1F [Example 97, N-((R)-1-(3-(difluoromethyl)-2-fluorophenyl)ethyl)-1-((1r,3R)-3-fluorocyclobutyl)-4-(((1R,5S,6s)-3-methyl-3-azabicyclo[3.1.0]hexan-6-yl)amino)-6-oxo-1,6-dihydropyridine-3-carboxamide] | 16.7 nM | 7 nM
C[C@@H](NC(=O)c1cn(C2(C(F)F)CC2)c(=O)cc1N[C@H]1C[C@@H]2CN(C)C[C@@H]2C1)c1cccc(C(F)F)c1F [Example 125, N-((R)-1-(3-(difluoromethyl)-2-fluorophenyl)ethyl)-1-(1-(difluoromethyl)cyclopropyl)-4-(((3aR,5s,6aS)-2-methyloctahydrocyclopenta[c]pyrrol-5-yl)amino)-6-oxo-1,6-dihydropyridine-3-carboxamide] | 27.7 nM | 13 nM
Cc1c([C@@H](C)NC(=O)c2cn(C3CCOCC3)c(=O)cc2NCC2CN(C)C2)cccc1C(F)(F)F [Example 8, (R)-N-(1-(2-methyl-3-(trifluoromethyl)phenyl)ethyl)-4-(((1-methylazetidin-3-yl)methyl)amino)-6-oxo-1-(tetrahydro-2H-pyran-4-yl)-1,6-dihydropyridine-3-carboxamide] | 48.6 nM | 12 nM
N-((R)-1-(3-(difluoromethyl)-2-fluorophenyl)ethyl)-1-(1- (difluoromethyl)cyclopropyl)-4-(((1R,5S,6s)-3-methyl-3-azabicyclo[3.1.0]hexan-6-yl)amino)-6- oxo-1,6-dihydropyridine-3-carboxamide [Example 55] | 23.6 nM | 12 nM
Cc1c([C@@H](C)NC(=O)c2cn(C3CCOCC3)c(=O)cc2NC2(C)CCN(C)CC2)cccc1C(F)(F)F [Example 45, (R)-4-((1,4-dimethylpiperidin-4-yl)amino)-N-(1-(2-methyl-3-(trifluoromethyl)phenyl)ethyl)-6-oxo-1-(tetrahydro-2H-pyran-4-yl)-1,6-dihydropyridine-3-carboxamide] | 37.9 nM | 21 nM
C[C@@H](NC(=O)c1cn(C23CC(C2)C3)c(=O)cc1N[C@@H]1CN2CCC1CC2)c1cccc(C(F)F)c1F [Example 156, 1-(bicyclo[1.1.1]pentan-1-yl)-N-((R)-1-(3-(difluoromethyl)-2-fluorophenyl)ethyl)-6-oxo-4-(((S)-quinuclidin-3-yl)amino)-1,6-dihydropyridine-3-carboxamide] | 12.4 nM | 3 nM
C[C@@H](NC(=O)c1cn(C23CC(F)(C2)C3)c(=O)cc1NC1[C@@H]2CC[C@H]1CN(C)C2)c1cccc(C(F)F)c1F (stereo partly drawn) [Example 136, N-((R)-1-(3-(difluoromethyl)-2-fluorophenyl)ethyl)-1-(3-fluorobicyclo[1.1.1]pentan-1-yl)-4-(((1R,SS,8s)-3-methyl-3-azabicyclo[3.2.1]octan-8-yl)amino)-6-oxo-1,6-dihydropyridine-3-carboxamide] | 6 nM | 3 nM
C[C@@H]1[C@@H](n2cc(C(=O)N[C@H](C)c3cccc(C(F)F)c3F)c(N[C@H]3[C@@H]4CN(C)C[C@@H]43)cc2=O)C1(F)F (single isomer, unassigned) [Example 109] | 3.6 nM | 2 nM
CO[C@@H]1CN(C)CC[C@H]1Nc1cc(=O)n(C2CCOCC2)cc1C(=O)N[C@H](C)c1cccc(C(F)(F)F)c1C (single isomer, unassigned) [Example 24] | 40 nM | 27 nM
C[C@@H](NC(=O)c1cn(C23CC(C2)C3)c(=O)cc1N[C@H]1C[C@@H](N(C)C)C1)c1cccc(C(F)F)c1F [Example 133, 1-(bicyclo[1.1.1]pentan-1-yl)-N-((R)-1-(3-(difluoromethyl)-2-fluorophenyl)ethyl)-4-(((1s,3S)-3-(dimethylamino)cyclobuty 1)amino)-6-oxo-1,6-dihydropyridine-3-carboxamide] | 23.2 nM | 11 nM
C[C@@H](NC(=O)c1cn(C2CC(F)(F)C2)c(=O)cc1N[C@H]1[C@@H]2CN(C)C[C@@H]21)c1cccc(C(F)F)c1F [Example 100, 1-(3,3-difluorocyclobutyl)-N-((R)-1-(3-(difluoromethyl)-2-fluorophenyl)ethyl)-4-(((1R,5S,6s)-3-methyl-3-azabicyclo[3.1.0]hexan-6-yl)amino)-6-oxo-1,6-dihydropyridine-3-carboxamide] | 18.2 nM | 10 nM
Cc1c([C@@H](C)NC(=O)c2cn(C3CCOCC3)c(=O)c(C#N)c2NC2CCN(C)CC2)cccc1C(F)(F)F [Example 20, (R)-5-cyano-N-(1-(2-methyl-3-(trifluoromethyl)phenyl)ethyl)-4-((1-methylpiperidin-4-yl)amino)-6-oxo-1-(tetrahydro-2H-pyran-4-yl)-1,6-dihydropyridine-3-carboxamide] | 22.7 nM | 10.4 nM
C[C@@H](NC(=O)c1cn([C@H]2C[C@@H]2C(F)(F)F)c(=O)cc1N[C@H]1[C@@H]2CN(C)C[C@@H]21)c1cccc(C(F)F)c1F (single isomer, unassigned) [Example 111] | 26.2 nM | 17 nM
C[C@@H](NC(=O)c1cn([C@H]2CCOC[C@@H]2F)c(=O)cc1NC1CCN(C)CC1)c1cccc(C(F)F)c1F [Example 80, N-((R)-1-(3-(difluoromethyl)-2-fluorophenyl)ethyl)-1-((3R,4S)-3-fluorotetrahydro-2H-pyran-4-yl)-4-((1-methylpiperidin-4-yl)amino)-6-oxo-1,6-dihydropyridine-3-carboxamide] | 16.7 nM | 8 nM
Cc1c([C@@H](C)NC(=O)c2cn(C3CCOCC3)c(=O)cc2N[C@H]2C[C@H](N(C)C)C2)cccc1C(F)(F)F [Example 7, 4-(((1r,3R)-3-(dimethylamino)cyclobutyl)amino)-N-((R)-1-(2-methyl-3-(trifluoromethyl)phenyl)ethyl)-6-oxo-1-(tetrahydro-2H-pyran-4-yl)-1,6-dihydropyridine-3-carboxamide] | 53.4 nM | 20 nM
C[C@@H](NC(=O)c1cn(C2CCOC(C)(C)C2)c(=O)cc1N[C@H]1[C@@H]2CN(C)C[C@@H]21)c1cccc(C(F)F)c1F (stereo partly drawn) [Example 122, N-((R)-1-(3-(difluoromethyl)-2-fluorophenyl)ethyl)-1-(2,2-dimethyltetrahydro-2H-pyran-4-yl)-4-(((1R,5S,6s)-3-methyl-3-azabicyclo[3.1.0]hexan-6-yl)amino)-6-oxo-1,6-dihydropyridine-3-carboxamide] | 17.4 nM | 9 nM

— patent publication US20230348424A1, “HETEROCYCLIC COMPOUNDS AND METHODS OF USE” (Schrödinger, Inc., priority 2022, published 2023)
